Experimental data as given in patent US9580426B2, “Compounds that expand hematopoietic stem cells” (Novartis AG, priority 2008, dated 2017).

Tested on: Primary adult CD34+ human hematopoietic stem cells (HSCs)
Assay: % CD34+ assay: HSC expansion screen, dose response
Assay type: cell-based
Conditions: Homo sapiens, Hematopoietic stem cell; dose response 1 nM to 10 μM; total number and/or percent of CD34+ cells
Protocol: Primary adult CD34^+ human hematopoietic stem cells (HSCs) are cultured and screened to identify compounds of the invention that facilitate HSC expansion. The cells are analyzed for the presence of the desired phenotype (CD34 expression). Compounds of the invention promote HSC expansion in a dose dependent manner.
Culture Medium: StemSpan SFEM medium is serum-free medium (StemCell Technologies, Vancouver, BC) supplemented with the following human recombinant cytokines: thrombopoietin, interleukin-6, Flt-3 ligand, and stem cell factor (all from R&D Systems, Minneapolis, Minn.), each at a final concentration of 50 ng/mL, with vehicle (DMSO) or a compound of the invention.
Human Cell Culture: Fresh human leukophoresed G-CSF mobilized peripheral blood from normal donors, CD34^+ cells from adult bone marrow and cryopreserved human cord blood CD34^+ cells are purchased from AllCells (Berkeley, Calif.). Human CD34^+ cells are enriched from leukophoresed G-CSF mobilized peripheral blood using magnetic cell sorting (MACS, Direct CD34 Progenitor Cell Isolation Kit, Miltenyi Biotec, Bergisch Gladbach, Germany) and cryopreserved. CD34^+ cell purity, checked by flow Cytometry, is higher than 90%. After thawing, the cell viability tested by trypan blue exclusion is higher than 70%. The thawed cells are centrifuged and resuspended with StemSpan medium before being aliquoted for immediate culture. Cells are plated at 10^4 cells/mL in a 384 well plate (Greiner Bio-One, Monroe, N.C.) with 50 μL of medium per well for 7 days. Every 7 days the cells are transferred to larger well plates and fresh medium is added to keep the cell density between 10^4 and 5×10^5 cells/mL. Cells were cultured at 37° C. in 5% CO2. For transplantation, cells were cultured in 75 cm^2 flasks before the cells were transplanted into mice. At a concentration of 1 micromolar, 4-(2-(2-(benzo[b]thiophen-3-yl)-9-isopropyl-9H-purin-6-ylamino)ethyl)phenol (compound 1, table 1; example 1), 4-(2-(2-(benzo[b]thiophen-3-yl)-9-sec-butyl-9H-purin-6-ylamino)ethyl)phenol (compound 2, table 1), and N-(2-(1H-indol-3-yl)ethyl)-2-(benzo[b]thiophen-3-yl)-9-isopropyl-9H-purin-6-amine (compound 9, table 1) each gives rise to a greater than 10-fold increase in the number of CD34^+ CD45RA^− cells derived from 1000 mPB CD34^+ HSCs after 21 days compared to vehicle. Compounds of the invention were assayed in a dose response format (1 nM to 10 μM) to determine the effective concentration that produced the desired effect in 50% of the cells (EC50).

CCC(C)n1cnc2c(NCCc3ccc(O)cc3)nc(-c3csc4ccccc34)nc21 (stereo not drawn) [Example 2, 4-(2-(2-(benzo[b]thiophen-3-yl)-9-sec-butyl-9H-purin-6-ylamino)ethyl)phenol]
EC50: 30 nM

Oc1ccc(CCNc2nc(-c3csc4ccccc34)nc3c2ncn3C(c2ccccc2)c2ccccc2)cc1 [Example 3]
EC50: 150 nM

Oc1ccc(CCNc2nc(-c3csc4ccccc34)nc3c2ncn3C2CCCOC2)cc1 (stereo not drawn) [Example 4]
EC50: 1490 nM

Oc1ccc(CCNc2nc(-c3csc4ccccc34)nc3c2ncn3Cc2ccc(C(F)(F)F)cc2)cc1 [Example 5]
EC50: 2080 nM

CC(C)Cn1cnc2c(NCCc3ccc(O)cc3)nc(-c3csc4ccccc34)nc21 [Example 6]
EC50: 2530 nM

Cn1cnc2c(NCCc3ccc(O)cc3)nc(-c3csc4ccccc34)nc21 [Example 7]
EC50: 7200 nM

Cc1ccc(Cn2cnc3c(NCCc4ccc(O)cc4)nc(-c4csc5ccccc45)nc32)cc1 [Example 8]
EC50: 6030 nM

CC(C)n1cnc2c(NCCc3c[nH]c4ccccc34)nc(-c3csc4ccccc34)nc21 [Example 9, N-(2-(1H-indol-3-yl)ethyl)-2-(benzo[b]thiophen-3-yl)-9-isopropyl-9H-purin-6-amine]
EC50: 20 nM

CC(C)n1cnc2c(NCCc3ccsc3)nc(-c3csc4ccccc34)nc21 [Example 10]
EC50: 1380 nM

CC(C)n1cnc2c(NCCc3cccc(O)c3)nc(-c3csc4ccccc34)nc21 [Example 11]
EC50: 1450 nM

CC(C)n1cnc2c(NCCc3ccc(F)cc3)nc(-c3csc4ccccc34)nc21 [Example 12]
EC50: 1760 nM

CC(C)n1cnc2c(NCCc3ccc(N)cc3)nc(-c3csc4ccccc34)nc21 [Example 13]
EC50: 5750 nM

CC(C)n1cnc2c(NCCc3ccc(O)cc3)nc(-c3cncnc3)nc21 [Example 14]
EC50: 170 nM

CC(C)n1cnc2c(NCCc3ccc(O)cc3)nc(-c3cccnc3)nc21 [Example 15]
EC50: 190 nM

CC(C)n1cnc2c(NCCc3ccc(O)cc3)nc(-c3ccccc3)nc21 [Example 16]
EC50: 460 nM

CC(C)n1cnc2c(NCCc3ccc(O)cc3)nc(-c3ccsc3)nc21 [Example 17]
EC50: 970 nM

CC(C)n1cnc2c(NCCc3ccc(O)cc3)nc(-c3ccoc3)nc21 [Example 18]
EC50: 3900 nM

Fc1ccc(CCNc2nc(-c3csc4ccccc34)nc3c2ncn3-c2ccccc2)cc1 [Example 19]
EC50: 1100 nM

CC(C)n1c(-c2ccc(-c3ccccc3)cc2)nc2c(NCc3ccccc3)ncnc21 [Example 20]
EC50: 7800 nM

CCCCCCCC(C)n1cnc2c(NCCc3ccc(O)cc3)nc(-c3csc4ccccc34)nc21 (stereo not drawn) [Example 21]
EC50: 130 nM

CCC(C)n1cnc2c(NCCc3c[nH]c4ccccc34)nc(-c3csc4ccccc34)nc21 (stereo not drawn) [Example 23]
EC50: 19 nM

CC(C)n1cnc2c(NCCc3ccc(O)cc3)nc(-c3ccncc3)nc21 [Example 31]
EC50: 660 nM

CCOC(=O)c1cncc(-c2nc(NCCc3ccc(O)cc3)c3ncn(C(C)C)c3n2)c1 [Example 32]
EC50: 5600 nM

COc1cncc(-c2nc(NCCc3ccc(O)cc3)c3ncn(C(C)C)c3n2)c1 [Example 33]
EC50: 270 nM

CC(C)n1cnc2c(NCCc3ccc(O)cc3)nc(-c3ccc(F)nc3)nc21 [Example 34]
EC50: 160 nM

Cc1ccncc1-c1nc(NCCc2ccc(O)cc2)c2ncn(C(C)C)c2n1 [Example 35]
EC50: 340 nM

CC(C)n1cnc2c(NCCc3ccc(O)cc3)nc(-c3cncc(C#N)c3)nc21 [Example 37]
EC50: 24 nM

CC(C)n1cnc2c(NCCc3ccc(O)cc3)nc(N3CCCC3)nc21 [Example 38]
EC50: 1600 nM

CC(C)n1cnc2c(NCCc3ccc(O)cc3)nc(-n3ccnc3)nc21 [Example 40]
EC50: 260 nM

CC(C)n1cnc2c(NCCc3ccc(O)cc3)nc(-c3ccnnc3)nc21 [Example 42]
EC50: 640 nM

CC(C)n1cnc2c(NCCc3ccc(O)cc3)nc(-c3cnccn3)nc21 [Example 43]
EC50: 2400 nM

CC(C)n1cnc2c(NCCc3ccc(O)cc3)nc(-c3ccccn3)nc21 [Example 44]
EC50: 1700 nM

Cc1cncc(-c2nc(NCCc3ccc(O)cc3)c3ncn(C(C)C)c3n2)c1 [Example 45]
EC50: 63 nM

CC(C)n1cnc2c(NCCc3ccc(O)cc3)nc(-c3cncc(S(C)(=O)=O)c3)nc21 [Example 46]
EC50: 650 nM

CC(C)n1cnc2c(NCCc3ccc(O)cc3)nc(-c3cnccc3Cl)nc21 [Example 48]
EC50: 510 nM

CC(C)n1cnc2c(NCCc3ccc(O)cc3)nc(-c3cncc(F)c3)nc21 [Example 50]
EC50: 34 nM

CC(C)n1cnc2c(NCCc3ccc(O)cc3)nc(-c3cccs3)nc21 [Example 55]
EC50: 1300 nM

Cc1cscc1-c1nc(NCCc2ccc(O)cc2)c2ncn(C(C)C)c2n1 [Example 58]
EC50: 240 nM

COc1cc(CCNc2nc(-c3cccnc3)nc3c2ncn3C(C)C)ccc1O [Example 60]
EC50: 3200 nM

COc1ccc2c(CCNc3nc(-c4cccnc4)nc4c3ncn4C(C)C)c[nH]c2c1 [Example 61]
EC50: 130 nM

Cc1ccc2[nH]cc(CCNc3nc(-c4cccnc4)nc4c3ncn4C(C)C)c2c1 [Example 62]
EC50: 720 nM

CC(C)n1cnc2c(NCCN3CCNC3=O)nc(-c3cccnc3)nc21 [Example 70]
EC50: 2700 nM

CC(C)n1cnc2c(NCCNc3ccccn3)nc(-c3cccnc3)nc21 [Example 72]
EC50: 6300 nM

CC(C)n1cnc2c(NCCCc3cn[nH]c3)nc(-c3cccnc3)nc21 [Example 73]
EC50: 8200 nM

Cc1n[nH]c(SCCNc2nc(-c3cccnc3)nc3c2ncn3C(C)C)n1 [Example 76]
EC50: 6000 nM

CC(C)n1cnc2c(NCCN3CCNC3=O)nc(-c3csc4ccccc34)nc21 [Example 81]
EC50: 2700 nM

CC(C)n1cnc2c(NCCc3n[nH]c(N)n3)nc(-c3csc4ccccc34)nc21 [Example 82]
EC50: 7900 nM

CC(C)n1cnc2c(NCCNc3ccccn3)nc(-c3csc4ccccc34)nc21 [Example 83]
EC50: 7100 nM

CC(C)n1cnc2c(NCCCc3cn[nH]c3)nc(-c3csc4ccccc34)nc21 [Example 84]
EC50: 5400 nM

Cc1n[nH]c(C)c1CCCNc1nc(-c2csc3ccccc23)nc2c1ncn2C(C)C [Example 88]
EC50: 2600 nM

CC(C)n1cnc2c(NCCNC(N)=O)nc(-c3csc4ccccc34)nc21 [Example 89]
EC50: 1400 nM

CC(C)n1cnc2c(NCc3ccc4[nH]c(=O)[nH]c4c3)nc(-c3csc4ccccc34)nc21 [Example 90]
EC50: 3300 nM

CC(C)n1cnc2c(NCCc3c[nH]c4ccccc34)nc(-c3cccnc3)nc21 [Example 91]
EC50: 29 nM

CC(C)n1cnc2c(NCCc3ccc(NS(C)(=O)=O)cc3)nc(-c3cccnc3)nc21 [Example 92]
EC50: 7100 nM

Oc1ccc(CCNc2nc(-c3cccnc3)nc3c2ncn3[C@@H]2CCOC2)cc1 [Example 93R]
EC50: 520 nM

Oc1ccc(CCNc2nc(-c3cccnc3)nc3c2ncn3[C@H]2CCOC2)cc1 [Example 93S]
EC50: 1100 nM

Oc1ccc(CCNc2nc(-c3cccnc3)nc3c2ncn3C2COC2)cc1 [Example 94]
EC50: 970 nM

CC(Cc1ccc(O)cc1)Nc1nc(-c2cccnc2)nc2c1ncn2C(C)C (stereo not drawn) [Example 95]
EC50: 2300 nM

CC(C)n1cnc2c(NCCc3n[nH]c4ccccc34)nc(-c3cccnc3)nc21 [Example 98]
EC50: 8200 nM

CC(C)n1cnc2c(N(C)CCc3ccc(O)cc3)nc(-c3cccnc3)nc21 [Example 99]
EC50: 7500 nM

CC(CO)n1cnc2c(NCCc3ccc(O)cc3)nc(-c3cccnc3)nc21 (stereo not drawn) [Example 113]
EC50: 540 nM

CC(C)n1cnc2c(NCCc3ccc(OS(N)(=O)=O)cc3)nc(-c3cccnc3)nc21 [Example 114]
EC50: 1100 nM

CC(C)n1cnc2c(NCCc3ccc(O)cc3)nc(-c3cccnc3F)nc21 [Example 118]
EC50: 450 nM

CC(C)n1cnc2c(NCCc3ccc(O)cc3)nc(-c3cccn3C)nc21 [Example 119]
EC50: 1400 nM

CC(C)n1cnc2c(NCCc3ccc(O)cc3)nc(-c3cncs3)nc21 [Example 120]
EC50: 1400 nM

CC(C)n1cnc2c(NCCc3ccc(O)cc3)nc(-n3cnc4ccccc43)nc21 [Example 121]
EC50: 86 nM

Cc1nccn1-c1nc(NCCc2ccc(O)cc2)c2ncn(C(C)C)c2n1 [Example 123, 4-(2-(9-Isopropyl-2-(2-methyl-1H-imidazol-1-yl)-9H-purin-6-ylamino)ethyl)phenol]
EC50: 66 nM

CCC(C)n1cnc2c(NCCc3ccc(O)c(C)c3)nc(-c3cncc(C#N)c3)nc21 (stereo not drawn) [Example 124]
EC50: 3 nM

Cc1cc(CCNc2nc(-c3cccnc3)nc3c2ncn3C(C)C)n[nH]1 [Example 126]
EC50: 5000 nM
